SMILES strings stand for the structures. Activity calls are given as the source filed them.

Five compounds from ChEMBL document CHEMBL1142345, “Synthesis and biological evaluation of alpha- and beta-6-amido derivatives of 17-cyclopropylmethyl-3, 14beta-dihydroxy-4, 5alpha-epoxymorphinan: potential alcohol-cessation agents” (J Med Chem, 2008) can be followed below.

For one data set, the target named is CYP2C19 (Homo sapiens, UniProt P33261). In words: Inhibition of CYP2C19 at 10 uM. In kind it is ADME.
CYP2C19, sequence (P33261 whole entry): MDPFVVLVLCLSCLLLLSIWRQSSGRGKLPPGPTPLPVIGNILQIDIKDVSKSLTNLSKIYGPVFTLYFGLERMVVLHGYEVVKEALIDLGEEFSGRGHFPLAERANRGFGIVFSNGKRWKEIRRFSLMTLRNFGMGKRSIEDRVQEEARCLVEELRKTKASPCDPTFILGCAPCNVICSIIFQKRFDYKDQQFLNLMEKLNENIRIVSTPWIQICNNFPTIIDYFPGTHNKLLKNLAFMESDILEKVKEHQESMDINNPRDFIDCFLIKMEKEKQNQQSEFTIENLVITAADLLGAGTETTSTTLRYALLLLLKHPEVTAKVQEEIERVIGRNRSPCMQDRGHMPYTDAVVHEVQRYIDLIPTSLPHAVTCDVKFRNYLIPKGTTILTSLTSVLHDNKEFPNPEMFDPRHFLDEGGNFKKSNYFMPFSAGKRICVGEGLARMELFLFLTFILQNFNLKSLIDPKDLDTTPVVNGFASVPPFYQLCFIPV
For data set [1], the species on record is Homo sapiens. In words: Selectivity ratio of Ki for human mu opioid receptor over Ki for human delta opioid receptor.
Data set [2] addresses T1, Mu-type opioid receptor (Homo sapiens, UniProt P35372). In words: Displacement of [3H]DAMGO from human mu opioid receptor expressed in CHO cells. Type of data set: cell-based. In general terms: Loss of bound radioactivity is the signal in a displacement assay; it reports binding, not function.
For data set [3], the target named is T2, Delta-type opioid receptor (Homo sapiens, UniProt P41143). In words: biochemical.
T2 sequence (P41143 whole entry): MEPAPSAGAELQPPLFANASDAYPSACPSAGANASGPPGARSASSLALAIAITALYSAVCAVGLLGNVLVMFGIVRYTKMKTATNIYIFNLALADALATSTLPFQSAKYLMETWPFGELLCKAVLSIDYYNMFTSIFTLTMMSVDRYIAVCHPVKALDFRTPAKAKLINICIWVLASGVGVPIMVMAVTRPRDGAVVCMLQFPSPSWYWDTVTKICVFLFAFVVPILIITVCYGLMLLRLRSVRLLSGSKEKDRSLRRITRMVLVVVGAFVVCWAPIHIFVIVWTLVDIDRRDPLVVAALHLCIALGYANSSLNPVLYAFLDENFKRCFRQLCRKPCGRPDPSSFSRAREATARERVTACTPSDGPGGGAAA
Description: Displacement of [3H]DPDPE from human delta opioid receptor expressed in CHO cells
The species named for data set [4] is Homo sapiens. Nature of the data set: Selectivity ratio of Ki for human mu opioid receptor over Ki for human kappa opioid receptor.
For another data set, the target named is CYP3A4 (Homo sapiens, UniProt P08684). In words: Inhibition of CYP3A4 at 10 uM. In kind it is ADME.
CYP3A4, sequence (P08684 whole entry): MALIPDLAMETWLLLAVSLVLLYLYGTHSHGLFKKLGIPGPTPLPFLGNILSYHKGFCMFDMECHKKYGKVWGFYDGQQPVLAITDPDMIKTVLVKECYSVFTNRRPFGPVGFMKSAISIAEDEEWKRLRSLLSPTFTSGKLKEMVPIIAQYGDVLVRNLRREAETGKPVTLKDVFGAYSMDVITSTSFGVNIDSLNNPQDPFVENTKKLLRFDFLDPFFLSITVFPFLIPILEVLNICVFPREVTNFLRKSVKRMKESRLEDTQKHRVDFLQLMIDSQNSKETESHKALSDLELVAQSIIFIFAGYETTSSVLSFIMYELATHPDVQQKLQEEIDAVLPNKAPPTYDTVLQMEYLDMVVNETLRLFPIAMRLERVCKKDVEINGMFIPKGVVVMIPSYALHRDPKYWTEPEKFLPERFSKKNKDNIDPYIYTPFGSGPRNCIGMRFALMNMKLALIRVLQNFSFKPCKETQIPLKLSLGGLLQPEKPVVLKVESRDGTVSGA
The target in data set [5] is T3, Kappa-type opioid receptor (Homo sapiens, UniProt P41145). Nature of the data set: Displacement of [3H]U69593 from human kappa opioid receptor expressed in CHO cells. Type of data set: cell-based.
T3 sequence (P41145 whole entry): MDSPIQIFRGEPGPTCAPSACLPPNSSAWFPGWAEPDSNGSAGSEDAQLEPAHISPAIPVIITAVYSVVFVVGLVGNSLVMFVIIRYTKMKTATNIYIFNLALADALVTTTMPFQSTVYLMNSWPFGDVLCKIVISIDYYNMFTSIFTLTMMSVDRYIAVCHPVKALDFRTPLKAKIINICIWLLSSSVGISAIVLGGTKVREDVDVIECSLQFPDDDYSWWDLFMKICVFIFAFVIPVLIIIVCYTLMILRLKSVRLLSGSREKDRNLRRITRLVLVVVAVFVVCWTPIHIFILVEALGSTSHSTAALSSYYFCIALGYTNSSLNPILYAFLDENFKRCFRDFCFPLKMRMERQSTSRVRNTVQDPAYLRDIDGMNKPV
Data set [6] concerns the target T3, Kappa-type opioid receptor. Nature of the data set: Agonist activity at human kappa opioid receptorR by [35S]GTPgammaS binding assay. In kind it is functional. In general terms: GTPγS resists hydrolysis and so accumulates on activated G proteins.
Data set [7] has as its target T2, Delta-type opioid receptor. In words: Agonist activity at human delta opioid receptorR by [35S]GTPgammaS binding assay. In kind it is functional.
The target of data set [8] is T1, Mu-type opioid receptor.
Description: Activity at human mu opioid receptor by [35S]GTPgammaS binding assay
In another data set the target is CYP2C9 (Homo sapiens, UniProt P11712). Nature of the data set: Inhibition of CYP2C9 at 10 uM. In kind it is ADME.
CYP2C9, sequence (P11712 whole entry): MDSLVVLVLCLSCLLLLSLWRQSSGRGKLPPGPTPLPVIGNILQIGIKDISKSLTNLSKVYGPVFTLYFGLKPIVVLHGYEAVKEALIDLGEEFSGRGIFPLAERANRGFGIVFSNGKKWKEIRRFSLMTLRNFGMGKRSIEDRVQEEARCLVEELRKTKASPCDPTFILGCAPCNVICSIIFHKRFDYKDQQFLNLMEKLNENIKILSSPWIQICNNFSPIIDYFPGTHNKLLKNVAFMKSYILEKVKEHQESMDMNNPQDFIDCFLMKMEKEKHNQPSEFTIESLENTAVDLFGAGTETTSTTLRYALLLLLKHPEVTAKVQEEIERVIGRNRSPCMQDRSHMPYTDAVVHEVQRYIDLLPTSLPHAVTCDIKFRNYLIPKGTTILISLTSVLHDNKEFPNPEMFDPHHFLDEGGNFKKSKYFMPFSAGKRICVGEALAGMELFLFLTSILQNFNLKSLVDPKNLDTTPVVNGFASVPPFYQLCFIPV
Another data set addresses CYP2D6 (Homo sapiens, UniProt P10635). Nature of the data set: in vitro.
For data set [9], the system named is Rattus norvegicus. In words: Inhibition of self alcohol consumption in rat at 1.5 mg/kg using operant techniques. Type of data set: functional.
For data set [10], the target named is T2, Delta-type opioid receptor. Nature of the data set: Activity at human delta opioid receptor by [35S]GTPgammaS binding assay. In kind it is functional.
For a further data set, the target named is T4, CYP2B6 (Homo sapiens, UniProt P20813).
T4 sequence (P20813 whole entry): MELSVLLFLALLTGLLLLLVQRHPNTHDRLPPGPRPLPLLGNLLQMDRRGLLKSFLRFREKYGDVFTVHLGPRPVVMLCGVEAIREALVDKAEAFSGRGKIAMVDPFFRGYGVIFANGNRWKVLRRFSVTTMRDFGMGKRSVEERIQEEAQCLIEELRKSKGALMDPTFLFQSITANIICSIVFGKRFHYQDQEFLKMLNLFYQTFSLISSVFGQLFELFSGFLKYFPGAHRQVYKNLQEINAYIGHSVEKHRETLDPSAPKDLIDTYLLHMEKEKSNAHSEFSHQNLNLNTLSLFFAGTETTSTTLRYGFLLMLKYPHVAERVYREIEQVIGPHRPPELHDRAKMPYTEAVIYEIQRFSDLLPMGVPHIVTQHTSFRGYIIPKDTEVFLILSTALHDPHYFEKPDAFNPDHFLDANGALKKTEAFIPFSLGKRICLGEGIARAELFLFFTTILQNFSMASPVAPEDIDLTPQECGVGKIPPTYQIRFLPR
Nature of the data set: Inhibition of CYP2B6 at 10 uM. In kind it is ADME.

The nature of data set [11]: Metabolic stability assessed as half life in mouse liver microsomes at 40 uM. Type of data set: ADME, Microsome.
The species entered for data set [12] is Rattus norvegicus. Nature of the data set: Inhibition of self alcohol consumption in rat using operant techniques. In kind it is functional.
Data set [13] has as its system Rattus norvegicus. In words: Inhibition of self alcohol consumption in rat at 2 mg/kg using operant techniques. In kind it is functional.
The nature of data set [14]: Metabolic stability assessed as half life in human liver S9 fraction at 40 uM. Type of data set: ADME, subcellular.
For data set [15], the system named is Rattus norvegicus. In words: Inhibition of self alcohol consumption in rat at 0.025 mg/kg using operant techniques. Type of data set: functional.

CYP2D6, sequence (P10635 whole entry): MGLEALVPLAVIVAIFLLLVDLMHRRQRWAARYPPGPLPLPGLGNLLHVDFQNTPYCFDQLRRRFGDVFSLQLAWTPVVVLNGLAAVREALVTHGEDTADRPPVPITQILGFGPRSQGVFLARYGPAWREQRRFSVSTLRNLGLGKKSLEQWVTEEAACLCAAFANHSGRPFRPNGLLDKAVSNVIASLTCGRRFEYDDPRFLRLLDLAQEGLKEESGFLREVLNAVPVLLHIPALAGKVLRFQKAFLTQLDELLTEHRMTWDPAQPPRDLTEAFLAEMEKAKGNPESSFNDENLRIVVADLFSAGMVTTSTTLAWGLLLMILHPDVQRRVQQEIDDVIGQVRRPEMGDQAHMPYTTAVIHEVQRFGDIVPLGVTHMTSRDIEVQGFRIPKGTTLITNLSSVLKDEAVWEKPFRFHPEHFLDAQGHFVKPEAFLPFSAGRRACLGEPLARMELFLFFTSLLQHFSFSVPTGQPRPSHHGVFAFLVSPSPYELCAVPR
T1 sequence (P35372 whole entry): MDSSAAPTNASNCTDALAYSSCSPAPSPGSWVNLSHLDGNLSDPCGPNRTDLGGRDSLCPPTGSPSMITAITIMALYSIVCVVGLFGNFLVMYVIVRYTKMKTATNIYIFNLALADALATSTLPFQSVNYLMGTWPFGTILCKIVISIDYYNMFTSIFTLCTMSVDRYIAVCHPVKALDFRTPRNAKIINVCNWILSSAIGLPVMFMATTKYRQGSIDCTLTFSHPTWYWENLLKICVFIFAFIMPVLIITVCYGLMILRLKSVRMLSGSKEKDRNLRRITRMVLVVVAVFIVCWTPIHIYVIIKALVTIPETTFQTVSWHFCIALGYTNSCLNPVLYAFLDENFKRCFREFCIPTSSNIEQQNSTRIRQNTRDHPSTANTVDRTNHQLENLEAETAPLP
Description for CYP2D6: Inhibition of CYP2D6 at 10 uM

With `CN(C)c1cccc(C(=O)NC2CC[C@@]3(O)[C@H]4Cc5ccc(O)c6c5[C@@]3(CCN4CC3CC3)[C@H]2O6)c1` (stereo not given in full), the inhibition (commonly the relative decrease from the control value, in per cent) at 10 µM on CYP2C19 stood at 70%; against CYP3A4 it was 39.9%; against CYP2C9, 23.1%; against CYP2D6, 23.5%. The results for the Ratio Ki in the data set filed under Homo sapiens [1] and in the data set listed under Homo sapiens [4] were 7.08 and 1.42, respectively. The Ki (as a rule, the dissociation constant of the complex between target and ligand, obtained from inhibition or displacement) on Mu-type opioid receptor [2] was 1.2 nM; in data set [3], 8.5 nM; in data set [5] it was 1.7 nM. The outcome in data set [6] and in [7] was Active. For the same compound, the Ke at Mu-type opioid receptor [8] was found to be 0.14 nM. Moreover, at 1.5 mg/kg the inhibition in vivo with Rattus norvegicus [9] was 17%.
For the compound `O=C(C[C@@H]1O[C@H](COCc2ccccc2)[C@@H](OCc2ccccc2)[C@H](OCc2ccccc2)[C@H]1OCc1ccccc1)N[C@H]1CC[C@@]2(O)[C@H]3Cc4ccc(O)c5c4[C@@]2(CCN3CC2CC2)[C@H]1O5`, the Ratio Ki was found to be 16.5 in the data set filed under Homo sapiens [1] and 0.34 in the data set filed under Homo sapiens [4]. Moreover, the inhibitory constant (Ki) is 1.49 nM on Mu-type opioid receptor [2], 24.5 nM in data set [3] and 0.51 nM in data set [5]. The results for the Ke (in data set [10]; at Mu-type opioid receptor [8]) were 10.3 nM and 0.16 nM, respectively.
On to `O=C(N[C@@H]1CC[C@@]2(O)[C@H]3Cc4ccc(O)c5c4[C@@]2(CCN3CC2CC2)[C@H]1O5)c1ccc(Cl)cc1`, for which the inhibition at 10 µM against CYP2C19 worked out at 39.1%; against CYP3A4, 30.8%; at CYP2B6, 7%; on CYP2C9, 28.1%; on CYP2D6 it was 4.7%. For the same compound, the half-life (as a rule, the time needed for the level to fall by half in the phase considered) at 40 µM in data set [11] was determined as 4.25 h. For the same compound, it took a dose of 0.5 mg/kg to reach the 50% effect level in the data set filed under Rattus norvegicus [12] (ED50).
As to `COc1cccc(C(=O)N[C@@H]2CC[C@@]3(O)[C@H]4Cc5ccc(O)c6c5[C@@]3(CCN4CC3CC3)[C@H]2O6)c1`, the inhibition at 10 µM was determined as 47.1% against CYP2C19, 44.9% against CYP3A4, 49.3% against CYP2B6 and 31.2% at CYP2D6. The Ratio Ki is 32 in the data set listed under Homo sapiens [1] and 2 in the data set filed under Homo sapiens [4]. The Ki at Mu-type opioid receptor [2] stood at 0.12 nM; in data set [3] it was 3.8 nM; in data set [5], 0.24 nM. Also, the result in [6] and in data set [7] was Active. At Mu-type opioid receptor [8], this compound displayed a Ke of 0.17 nM. At 2 mg/kg the inhibition in vivo in the data set with Rattus norvegicus [13] was 75%.
Regarding `O=C(N[C@@H]1CC[C@@]2(O)[C@H]3Cc4ccc(O)c5c4[C@@]2(CCN3CC2CC2)[C@H]1O5)c1ccc(Cl)c(Cl)c1`, the inhibition at 10 µM came out at 48.3% against CYP2C19, 35.5% against CYP3A4 and 32.3% on CYP2C9. Also, the half-life at 40 µM in data set [14] amounted to 5.77 h. Further, the inhibition in vivo – broadly, the relative decrease from the control value, in per cent – at 0.025 mg/kg in the data set with Rattus norvegicus [15] came to 77%.
